Experiment [1] relates to Mero-82 mesothelioma cell line. The experiment in a line: Anchorage-independent growth-death assay, Mero-82. The class given is cell-based, human. Conditions: single agent, 6 days; for pEC50 / pIC50: Homo sapiens, 144 h; for pEC50 / pIC50 / gIC100: anchorage-independent; for pEC50: read-out: dEC50; for pIC50: read-out: gIC50; for Ymin-T0: negative = net cell kill. Here is the method: (§1) Five human mesothelioma cell lines were used in these studies. Cells were grown in RPMI1640 media containing 10% FBS, 1% L-glutamine, 1% sodium pyruvate under standard cell culture conditions. The mesothelioma cell lines: Mero-14, Mero-82, NCI-H2052, NO36, and ONE58. The cellular response to Compound A or B was evaluated in an anchorage-independent cell growth assay that quantified the extent of cell growth inhibition and the net change in cell population. The assay was performed in black, clear bottom, untreated 384-well plates (Greiner #781096). It is important to use either non-tissue culture treated or Low Attachment plates to prevent cells from adhering to the plate during the assay. In brief, the assay was performed as described below. A 1% (weight/volume) stock of methylcellulose solution was prepared by dissolving 5 grams of methylcellulose (Sigma #M0512) in 495 mL of cell culture medium. […] Media can be substituted if the cells require different cell culture medium for growth. The dissolution often took a day with vigorous stirring at 4° C. maintaining sterile conditions. Cells were plated into a 384 well plate with assay conditions of 0.65% methylcellulose (final concentration) and 1000 cells per well in a final volume of 48 μL. […] The cells were mixed by inversion to distribute evenly, bubbles were dispersed and 48 μL was placed into the well with a positive displacement pipette. The plates were placed in a cell culture incubator containing 5% CO2 at 37° C. Serial dilution of compound in DMSO was done in a 384 well plate starting with μL of stock compound solution in the first column and 10 μL of DMSO in the other wells. Ten μL from the compound well was transferred into the DMSO containing well, mixed, and the serial dilution was continued with 10 μL transfers across the plate. Then, 4 μL of this DMSO diluted compound was added into wells of a new 384 well plate containing 105 μL of appropriate growth medium. This 'compound plate' was used to dose the assay plates containing cells in methylcellulose. For combination experiments, 20 μL of stock compound solution was a mixture of Compound A and Compound B at the designated ratio. For an example, for 1 to 1 ratio, 10 ul of Compound A at 40 mM and 10 ul of Compound B at 40 mM was mixed to generate ul of stock compound solution with both Compound A and Compound B at 20 mM concentration. […] Serial dilution and compound plate dilution was done as described above. Two μL from each well of the 'compound plate' was added to the individual wells of the 'cell plates' containing the 48 μL of cells in methylcellulose to initiate the assay. These assay plates were placed in the cell culture incubator for 6 days. One 'cell plate' was selected at random and was developed (see below) with Cell [NT] the time compound was added to the remaining cell plates and represents the time equal zero (T0) plate, i.e. it represents the number of cells at the time of compound addition. After 6 days the assay was stopped and the plates were developed by placing a black sticker on bottom of each plate to block light, 25 μL of CTG was added and then plates were incubate for 20 minutes at room temperature. The plates were scanned using a luminescence protocol on the EnVision (Perkin-Elmer). Results were expressed as a percent of the T0 value and plotted against the compound concentration. […] Positive values indicate net cell growth and negative values represent net cell kill. […] The results for the combination were analyzed by determination of Combination Index (CI) values using both mutually exclusive and mutually non-exclusive assumptions (12). The XC50 denotes that each parameter from the growth-death analysis was used, either gIC50 or gIC100 or […] values, to calculate the CI values. The A+B represents the XC50 value for the combination relative to the concentration of A and the B+A represents the XC50 value for the combination relative to the concentration of B in the combination.

The test system of experiment [2] is five human mesothelioma cell lines. The experiment in a line: Anchorage-independent growth-death assay, summary over the cell line panel. The class given is cell-based. The note with it: 6 days of compound exposure, FIG. 4. Here is the method: Five human mesothelioma cell lines were used in these studies. Cells were grown in RPMI1640 media containing 10% FBS, 1% L-glutamine, 1% sodium pyruvate under standard cell culture conditions. The mesothelioma cell lines: Mero-14, Mero-82, NCI-H2052, NO36, and ONE58.
The cellular response to Compound A or B was evaluated in an anchorage-independent cell growth assay that quantified the extent of cell growth inhibition and the net change in cell population. The assay was performed in black, clear bottom, untreated 384-well plates (Greiner #781096). It is important to use either non-tissue culture treated or Low Attachment plates to prevent cells from adhering to the plate during the assay. In brief, the assay was performed as described below.
A 1% (weight/volume) stock of methylcellulose solution was prepared by dissolving 5 grams of methylcellulose (Sigma #M0512) in 495 mL of cell culture medium. […]
After 6 days the assay was stopped and the plates were developed by placing a black sticker on bottom of each plate to block light, 25 μL of CTG was added and then plates were incubate for 20 minutes at room temperature. The plates were scanned using a luminescence protocol on the EnVision (Perkin-Elmer).
Results were expressed as a percent of the T0 value and plotted against the compound concentration. […]

Experiment [3] deals with Mero-14 mesothelioma cell line. As to the kind of experiment: Anchorage-independent growth-death assay, Mero-14. The note with it: single agent, 6 days; for pEC50 / pIC50: Homo sapiens, 144 h; for pEC50 / pIC50 / gIC100: anchorage-independent; for pEC50: read-out: dEC50; for pIC50: read-out: gIC50; for Ymin-T0: negative = net cell kill. The class given is cell-based, human. Here is the method:
as §1

Experiment [4] concerns ONE58 mesothelioma cell line. The experiment in a line: Anchorage-independent growth-death assay, ONE58. Conditions: single agent, 6 days; for pIC50: read-out: gIC50; for Ymin-T0: negative = net cell kill. Format: cell-based, human. The method, then: as §1
Experiment [5] concerns NCI-H2052 mesothelioma cell line. As to the kind of experiment: Anchorage-independent growth-death assay, NCI-H2052. The class given is cell-based, human. The note with it: single agent, 6 days; for pIC50: Homo sapiens, 144 h, read-out: gIC50; for Ymin-T0: negative = net cell kill. Here is the method:
(§2) Five human mesothelioma cell lines were used in these studies. Cells were grown in RPMI1640 media containing 10% FBS, 1% L-glutamine, 1% sodium pyruvate under standard cell culture conditions. The mesothelioma cell lines: Mero-14, Mero-82, NCI-H2052, NO36, and ONE58. The cellular response to Compound A or B was evaluated in an anchorage-independent cell growth assay that quantified the extent of cell growth inhibition and the net change in cell population. The assay was performed in black, clear bottom, untreated 384-well plates (Greiner #781096). It is important to use either non-tissue culture treated or Low Attachment plates to prevent cells from adhering to the plate during the assay. In brief, the assay was performed as described below. A 1% (weight/volume) stock of methylcellulose solution was prepared by dissolving 5 grams of methylcellulose (Sigma #M0512) in 495 mL of cell culture medium. […] Media can be substituted if the cells require different cell culture medium for growth. The dissolution often took a day with vigorous stirring at 4° C. maintaining sterile conditions. Cells were plated into a 384 well plate with assay conditions of 0.65% methylcellulose (final concentration) and 1000 cells per well in a final volume of 48 μL. […] The cells were mixed by inversion to distribute evenly, bubbles were dispersed and 48 μL was placed into the well with a positive displacement pipette. The plates were placed in a cell culture incubator containing 5% CO2 at 37° C. Serial dilution of compound in DMSO was done in a 384 well plate starting with μL of stock compound solution in the first column and 10 μL of DMSO in the other wells. Ten μL from the compound well was transferred into the DMSO containing well, mixed, and the serial dilution was continued with 10 μL transfers across the plate. Then, 4 μL of this DMSO diluted compound was added into wells of a new 384 well plate containing 105 μL of appropriate growth medium. This 'compound plate' was used to dose the assay plates containing cells in methylcellulose. For combination experiments, 20 μL of stock compound solution was a mixture of Compound A and Compound B at the designated ratio. For an example, for 1 to 1 ratio, 10 ul of Compound A at 40 mM and 10 ul of Compound B at 40 mM was mixed to generate ul of stock compound solution with both Compound A and Compound B at 20 mM concentration. […] Serial dilution and compound plate dilution was done as described above. Two μL from each well of the 'compound plate' was added to the individual wells of the 'cell plates' containing the 48 μL of cells in methylcellulose to initiate the assay. These assay plates were placed in the cell culture incubator for 6 days. One 'cell plate' was selected at random and was developed (see below) with Cell [NT] the time compound was added to the remaining cell plates and represents the time equal zero (T0) plate, i.e. it represents the number of cells at the time of compound addition. […] The plates were scanned using a luminescence protocol on the EnVision (Perkin-Elmer). Results were expressed as a percent of the T0 value and plotted against the compound concentration. […] The results for the combination were analyzed by determination of Combination Index (CI) values using both mutually exclusive and mutually non-exclusive assumptions (12). […]

Experiment [6] has as its system NO36 mesothelioma cell line. As to the kind of experiment: Anchorage-independent growth-death assay, NO36. Format: cell-based, human. The note with it: single agent, 6 days; for pIC50: Homo sapiens, 144 h, read-out: gIC50; for Ymin-T0: negative = net cell kill. Here is the method: as §2
The mark [7] stands for this setting: Homo sapiens, 144 h, anchorage-independent.

This note sets out measurements from patent US20160263116A1, “COMBINATIONS” (GlaxoSmithKline LLC, priority 2012, published 2016).

The structures appear in SMILES notation. pEC50, pIC50: −log10 of the molar value.

Take `CONC(=O)c1ccccc1Nc1cc(Nc2cc(C)nn2C(C)C)ncc1Cl` [Compound A, 2-[(5-Chloro-2-{[3-methyl-1-(1-methylethyl)-1H-pyrazol-5-yl]amino}-4-pyridinyl)amino]-N-(methyloxy)benzamide]: the values for the pEC50 in experiment [1] and in experiment [3] were 5.16 and 5.02, respectively. In addition, the pIC50 was 7.80 in experiment [1]; 7.25 in experiment [3]; 7.64 in experiment [4] (setting [7]); 6.39 in experiment [5] (anchorage-independent); 4.77 in experiment [6] (anchorage-independent). Moreover, the gIC100 was 983 nM in experiment [1], 3888 nM in experiment [3], 6.135 µM in experiment [4] (anchorage-independent) and 5.73 µM in experiment [5] (anchorage-independent). The Ymin-T0 is listed as −53% in experiment [1]; −52% in experiment [3]; −14% in experiment [4]; −30% in experiment [5]; 134% in experiment [6]. Also, the “net change in cell population (Ymin-T0), in words” value in experiment [2] is on record as “generally cytostatic”.
As to `CC(=O)Nc1cccc(-n2c(=O)n(C3CC3)c(=O)c3c(Nc4ccc(I)cc4F)n(C)c(=O)c(C)c32)c1` [Compound B, N-{3-[3-cyclopropyl-5-(2-fluoro-4-iodo-phenylamino)-6,8-dimethy-2,4,7-trioxo-3,4,6,7-tetrahydro-2H-pyrido[4,3-d]pyrimidin-1-yl]phenyl}acetamide], the pEC50 is 6.72 in experiment [1]; 7.15 in experiment [3]; 6.72 in experiment [4] (Homo sapiens, 144 h, anchorage-independent, read-out: dEC50). Also, the pIC50 in experiment [1] was 8.00; in experiment [3], 8.18; in experiment [4] (setting [7]) it was 8.06; in experiment [5] (anchorage-independent) it was 7.80; in experiment [6] (anchorage-independent) it was 6.87. Also, the gIC100 in experiment [1] was found to be 67 nM; in experiment [3], 26 nM; in experiment [4] (anchorage-independent), 0.045 µM; in experiment [6] (anchorage-independent), 2345 nM. For the same compound, the Ymin-T0 in experiment [1] was −89%; in experiment [3], −78%; in experiment [4], −92%; in experiment [5] it was 31%; in experiment [6] it was −17%. In addition, the “net change in cell population (Ymin-T0), in words” value in experiment [2] is “cytotoxic in three of the five cell lines”.
